“Also recorded” adds a separate entry of the source. Like-named read-outs stand apart in the source and are kept apart here.
Tests used:
[1] = ph stat, naoh titration
[2] = tested on: colorectal cell line LS174T; experiment: cells; conditions: Homo sapiens, 1 h
[3] = biological target: CPG2 (Pseudomonas sp., UniProt P06621); type: biochemical, bacterial
[4] = tested on: colorectal cell line LS174T

CPG2, sequence (P06621 23-415): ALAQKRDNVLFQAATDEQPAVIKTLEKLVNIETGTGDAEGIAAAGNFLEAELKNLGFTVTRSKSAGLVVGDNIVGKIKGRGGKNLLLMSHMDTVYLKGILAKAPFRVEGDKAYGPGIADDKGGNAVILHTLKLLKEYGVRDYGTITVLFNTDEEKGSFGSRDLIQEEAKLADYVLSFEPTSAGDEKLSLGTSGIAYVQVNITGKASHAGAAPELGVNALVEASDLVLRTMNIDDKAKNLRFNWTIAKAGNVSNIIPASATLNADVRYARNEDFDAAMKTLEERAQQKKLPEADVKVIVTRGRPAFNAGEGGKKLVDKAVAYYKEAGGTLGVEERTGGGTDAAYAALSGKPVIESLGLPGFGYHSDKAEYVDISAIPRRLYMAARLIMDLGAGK

Structure (SMILES) | Active Drug t1/2 (chemical half-life) [1] [min] | IC50 ([2]; read-out: Active Drug IC50) [µM] | IC50 ([2]; read-out: Prodrug + CPG2 IC50) [µM] | IC50 ([2]; read-out: Prodrug IC50) [µM] | Ability of prodrug to act as CPG2 substrate (in words) [3] | further results
CS(=O)(=O)OCCN(CCCl)c1ccc(C(=O)O)cc1F [Compound 23] | 2.4 | 280 |  |  |  | 
CS(=O)(=O)OCCN(CCCl)c1ccc(C(=O)O)c(F)c1 [Compound 11] | 192 | > 800 |  |  |  | 
CS(=O)(=O)OCCN(CCCl)c1ccc(C(=O)N[C@@H](CCC(=O)O)C(=O)O)c(F)c1 [Compound 8, 2-fluoro, 4-[(2-chloroethyl)[2-(mesyloxy)ethyl]amino]benzoyl-L-glutamic acid] |  |  | > 800 | > 800 | good substrates | 
O=C(O)CC[C@H](NC(=O)c1ccc(N(CCCl)CCCl)cc1F)C(=O)O [Compound 9, 2-fluoro, 4-[bis(2-chloroethyl)amino]benzoyl-L-glutamic acid] |  |  |  |  | good substrates | IC50 ([4]; read-out: Prodrug + CPG2 IC50): > 800 µM; IC50 ([4]; read-out: Prodrug IC50): > 800 µM; kcat [3]: 462 S^-1
CS(=O)(=O)OCCN(CCOS(C)(=O)=O)c1ccc(C(=O)N[C@@H](CCC(=O)O)C(=O)O)c(F)c1 [Compound 7, 2-fluoro, 4-[bis-[2-(mesyloxy)ethyl]amino]benzoyl-L-glutamic acid] |  |  | > 800 | > 800 | such a poor substrate that it was not possible to measure its kinetics; also recorded: very poor substrate | 
CS(=O)(=O)OCCN(CCCl)c1ccc(C(=O)N[C@@H](CCC(=O)O)C(=O)O)cc1F [Compound 20, 3-fluoro, 4-[(2-chloroethyl)[2-(mesyloxy)ethyl]amino]benzoyl-L-glutamic acid] |  |  | 350 | > 800 | good substrates | Prodrug t1/2 (chemical half-life) [1]: 122 min
CS(=O)(=O)OCCN(CCCl)c1ccc(C(=O)N[C@@H](CCC(=O)O)C(=O)O)cc1 [Compound 26, 4[(2chloroethyl)[2(mesyloxy)ethyl]amino]benzoylL-glutamic acid, reference compound] |  |  | 200 | > 800 |  | Prodrug activity (increased cytotoxicity on conversion by CPG2) [4]: substantial prodrug activity; Prodrug t1/2 (chemical half-life) [1]: 984 min
CS(=O)(=O)OCCN(CCOS(C)(=O)=O)c1ccc(C(=O)O)cc1F [Compound 22] | 1.9 | 480 |  |  |  | 
CS(=O)(=O)OCCN(CCCl)c1ccc(C(=O)O)cc1 [Compound 29, reference compound] | 58 | 185 |  |  |  | 
CS(=O)(=O)OCCN(CCOS(C)(=O)=O)c1ccc(C(=O)N[C@@H](CCC(=O)O)C(=O)O)cc1F [Compound 19] |  |  | 480 | > 800 | good substrates | 
CS(=O)(=O)OCCN(CCOS(C)(=O)=O)c1ccc(C(=O)N[C@@H](CCC(=O)O)C(=O)O)cc1 [Compound 25, reference compound] |  |  |  |  |  | Prodrug t1/2 (chemical half-life) [1]: 42 min
O=C(O)CC[C@H](NC(=O)c1ccc(N(CCCl)CCCl)c(F)c1)C(=O)O [Compound 21, 3-fluoro, 4-[bis(2-chloroethyl) ,amino] benzoyl-L-glutamic acid] |  |  |  |  | good substrates | IC50 ([4]; read-out: Prodrug + CPG2 IC50): 390 µM; IC50 ([4]; read-out: Prodrug IC50): > 800 µM; kcat [3]: 1028 S^-1

Source: patent US5811454A (priority 1993, dated 1998)
